Results on 18 compounds are retold here after patent US12371428B2 (Exelixis, Inc., priority 2019, dated 2025).

Structures can show the parent of a compound that is named as a salt. Where two headings read alike, the source gives them in different places.

Assay [1] concerns the target Human KDR (residues 790-1356) (Homo sapiens (Human), UniProt P35968). In words: Human KDR kinase assay, HTRF KinEase (Example B-2). The format is biochemical. An outline of the steps:
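Ten compound concentrations (3% DMSO final) were pre-plated, then KDR (790-1356) with biotinylated peptide in Mg/Mn/DTT buffer was added; ATP at Km (4.0 μM) started a 40 min room-temperature reaction. Detection used Eu-TK antibody and SA-XL665 in EDTA buffer; activity normalized to DMSO and reference inhibitor, IC50 by logistic fit.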
For orientation: TR-FRET usually uses a lanthanide donor and a delayed reading to cut background.

Assay [2] addresses Human MER (residues 528-999) (Homo sapiens (Human), UniProt Q12866). In words: Human Mer kinase assay, HTRF KinEase (Example C-2). The format is biochemical. An outline of the steps:
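Recombinant MER 528-999 (1 ng/well) in buffer with 5 mM MgCl2 and 1 mM DTT was reacted with biotinylated peptide and ATP at Km (40 μM) for 60 min at room temperature. EDTA stop with SA-XL665 and Eu3+ TK antibody, then 665/620 nm HTRF read; IC50 from 4-parameter fit.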

The target of assay [3] is Mer (phospho-Mer, MERTK-transfected 293A cells) (Homo sapiens (Human), UniProt Q12866). In words: Mer autophosphorylation ELISA in transient transfected 293A cells (Example H). The class given is cell-based. To be noted: cellular activity; Mer autophosphorylation ELISA in transient transfected 293A cells. The procedure, abridged: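 IC50 from phospho-Mer ELISA of MERTK-transfected 293A cell lysates after 1 h treatment with serially diluted compound in serum-free medium.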

For assay [4], the target named is Human MET (residues 956-1390) (Homo sapiens (Human), UniProt P08581). In words: Human Met kinase assay, HTRF KinEase (Example D-2). The format is biochemical. To be noted: read-out: c-Met IC50. The procedure, abridged: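 MET kinase domain (956-1390), 0.1 ng/well, in buffer with 5 mM MgCl2, 1 mM DTT and 1 mM MnCl2, phosphorylated a biotinylated peptide at ATP Km for 40 min at RT; 10 concentrations, 3% DMSO final. EDTA-stopped HTRF read after 60 min; IC50 from a 4-parameter logistic fit.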

The mark [5] stands for this setting: protocol of Example B-2 (other compounds).
Setting [6] is: protocol of Example C-2 (other compounds).
[7] abbreviates: protocol of Example D-2 (other compounds).

Sequence of Human KDR (residues 790-1356) (P35968 790-1356): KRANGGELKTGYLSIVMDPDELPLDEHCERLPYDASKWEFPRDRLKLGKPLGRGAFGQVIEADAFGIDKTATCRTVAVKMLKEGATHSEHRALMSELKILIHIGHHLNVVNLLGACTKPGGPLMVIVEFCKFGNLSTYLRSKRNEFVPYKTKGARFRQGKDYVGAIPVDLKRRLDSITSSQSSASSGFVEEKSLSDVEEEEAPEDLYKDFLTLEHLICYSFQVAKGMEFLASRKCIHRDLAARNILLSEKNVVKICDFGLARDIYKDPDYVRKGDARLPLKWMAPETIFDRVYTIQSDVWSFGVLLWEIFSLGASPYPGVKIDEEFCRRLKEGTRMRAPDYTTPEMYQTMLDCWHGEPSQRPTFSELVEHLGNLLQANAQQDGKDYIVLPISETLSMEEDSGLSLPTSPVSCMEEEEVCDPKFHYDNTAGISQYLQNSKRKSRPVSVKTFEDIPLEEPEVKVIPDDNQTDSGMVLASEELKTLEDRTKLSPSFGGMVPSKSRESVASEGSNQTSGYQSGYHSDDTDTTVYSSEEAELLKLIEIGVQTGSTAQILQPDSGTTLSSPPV
Sequence of Mer (phospho-Mer, MERTK-transfected 293A cells) (Q12866 21-999): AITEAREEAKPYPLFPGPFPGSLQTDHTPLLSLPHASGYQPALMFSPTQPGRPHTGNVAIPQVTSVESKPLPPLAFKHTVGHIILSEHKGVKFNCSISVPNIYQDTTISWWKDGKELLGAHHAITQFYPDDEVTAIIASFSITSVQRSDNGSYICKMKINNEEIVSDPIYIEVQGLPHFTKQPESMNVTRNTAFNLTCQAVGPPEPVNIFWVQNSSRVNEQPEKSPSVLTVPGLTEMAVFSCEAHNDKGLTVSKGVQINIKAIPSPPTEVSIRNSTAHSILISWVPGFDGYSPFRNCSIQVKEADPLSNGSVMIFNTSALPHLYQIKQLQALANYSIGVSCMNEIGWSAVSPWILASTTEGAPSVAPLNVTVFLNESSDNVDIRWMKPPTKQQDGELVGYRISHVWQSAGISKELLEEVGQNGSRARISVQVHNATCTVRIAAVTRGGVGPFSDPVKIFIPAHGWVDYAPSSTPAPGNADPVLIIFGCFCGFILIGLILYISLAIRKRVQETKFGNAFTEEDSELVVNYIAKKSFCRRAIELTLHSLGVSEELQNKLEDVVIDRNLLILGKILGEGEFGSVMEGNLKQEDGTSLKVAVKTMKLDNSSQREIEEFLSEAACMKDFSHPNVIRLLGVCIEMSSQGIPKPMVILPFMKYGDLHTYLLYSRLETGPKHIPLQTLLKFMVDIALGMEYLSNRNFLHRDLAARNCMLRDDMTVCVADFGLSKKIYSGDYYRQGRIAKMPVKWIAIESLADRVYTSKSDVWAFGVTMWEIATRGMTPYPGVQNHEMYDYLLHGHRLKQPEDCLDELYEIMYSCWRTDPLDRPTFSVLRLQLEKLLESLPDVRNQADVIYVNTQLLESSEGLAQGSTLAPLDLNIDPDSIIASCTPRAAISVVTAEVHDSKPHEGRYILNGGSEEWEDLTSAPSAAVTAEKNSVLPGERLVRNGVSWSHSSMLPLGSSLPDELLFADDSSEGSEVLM
Sequence of Human MET (residues 956-1390) (P08581 956-1390): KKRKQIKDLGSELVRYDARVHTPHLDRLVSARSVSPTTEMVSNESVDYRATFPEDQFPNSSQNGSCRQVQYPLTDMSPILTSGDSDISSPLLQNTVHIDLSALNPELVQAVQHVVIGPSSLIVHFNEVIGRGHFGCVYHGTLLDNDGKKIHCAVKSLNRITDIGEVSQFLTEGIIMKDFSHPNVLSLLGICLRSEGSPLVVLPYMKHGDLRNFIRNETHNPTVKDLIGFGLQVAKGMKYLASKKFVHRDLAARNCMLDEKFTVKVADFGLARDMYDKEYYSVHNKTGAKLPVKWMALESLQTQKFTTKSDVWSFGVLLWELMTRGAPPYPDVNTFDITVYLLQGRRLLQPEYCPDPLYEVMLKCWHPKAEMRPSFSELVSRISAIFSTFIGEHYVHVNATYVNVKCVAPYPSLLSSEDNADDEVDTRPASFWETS
Sequence of Human MER (residues 528-999) (Q12866 528-999): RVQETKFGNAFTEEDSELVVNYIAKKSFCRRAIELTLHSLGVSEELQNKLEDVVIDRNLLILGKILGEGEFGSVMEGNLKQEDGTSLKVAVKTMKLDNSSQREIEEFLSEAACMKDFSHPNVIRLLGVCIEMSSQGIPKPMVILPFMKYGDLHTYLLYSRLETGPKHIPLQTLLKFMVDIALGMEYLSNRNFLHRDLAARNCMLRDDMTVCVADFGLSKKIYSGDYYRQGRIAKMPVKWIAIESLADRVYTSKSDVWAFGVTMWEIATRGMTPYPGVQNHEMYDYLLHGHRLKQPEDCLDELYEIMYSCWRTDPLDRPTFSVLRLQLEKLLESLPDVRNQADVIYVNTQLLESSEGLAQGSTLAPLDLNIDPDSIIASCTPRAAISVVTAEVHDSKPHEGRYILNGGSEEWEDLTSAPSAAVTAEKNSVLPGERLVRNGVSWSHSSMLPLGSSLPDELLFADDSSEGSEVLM

A word on the IC50: it is the concentration that inhibits the measured activity by half. For the compound `CCn1cc(C(=O)Nc2ccc(Oc3ccnc4cc(OC)c(OC)nc34)cc2)c(=O)c(-c2ccc(F)cc2)c1C` [Compound 168, N-[4-[(6,7-Dimethoxy-1,5-naphthyridin-4-yl)oxy]phenyl]-1-ethyl-5-(4-fluorophenyl)-6-methyl-4-oxopyridine-3-carboxamide], the IC50 in assay [1] (setting [5]) is 100 to 300 nM; in assay [2] (setting [6]), below 100 nM; in assay [3] it was below 100 nM; in assay [4] (setting [7]), below 100 nM.
Consider `COc1cnc2c(Oc3ccc(NC(=O)c4cncc(-c5ccc(F)cc5)c4O)cc3F)ccnc2c1` [Compound 120, N-[3-Fluoro-4-[(7-methoxy-1,5-naphthyridin-4-yl)oxy]phenyl]-5-(4-fluorophenyl)-4-hydroxypyridine-3-carboxamide], for which the IC50 in assay [1] (setting [5]), in assay [2] (setting [6]), in assay [3] and in assay [4] (setting [7]) was below 100 nM each time.
Take `Cc1ncc(C(=O)Nc2ccc(Oc3ccnc4cc(-c5cnn(C(F)F)c5)cnc34)c(F)c2)c(O)c1-c1ccc(F)cc1` [Compound 610, N-[4-[[7-[1-(Difluoromethyl)pyrazol-4-yl]-1,5-naphthyridin-4-yl]oxy]-3-fluorophenyl]-5-(4-fluorophenyl)-4-hydroxy-6-methylpyridine-3-carboxamide hydrochloride]: the IC50 is 100 to 300 nM in assay [1] (protocol of Example B-2), below 100 nM in assay [2] (protocol of Example C-2), below 100 nM in assay [3] and below 100 nM in assay [4] (protocol of Example D-2).
As for `COc1cc2nccc(Oc3ccc(NC(=O)c4cn(CCO)c(C)c(-c5ccc(F)cc5)c4=O)cc3F)c2nc1OC` [Compound 619, N-[4-[(6,7-Dimethoxy-1,5-naphthyridin-4-yl)oxy]-3-fluorophenyl]-5-(4-fluorophenyl)-1-(2-hydroxyethyl)-6-methyl-4-oxopyridine-3-carboxamide], the IC50 was above 300 nM in assay [1] (protocol of Example B-2), below 100 nM in assay [2] (protocol of Example C-2), below 100 nM in assay [3] and below 100 nM in assay [4] (protocol of Example D-2).
Take `Cc1nc(C)c(-c2ccc(F)cc2)c(O)c1C(=O)Nc1ccc(Oc2ccnc3cc(C(C)C)cnc23)c(F)c1` [Compound 595, 5-(4-Fluorophenyl)-N-[3-fluoro-4-[(7-propan-2-yl-1,5-naphthyridin-4-yl)oxy]phenyl]-4-hydroxy-2,6-dimethylpyridine-3-carboxamide]: the IC50 in assay [1] (protocol of Example B-2) is 100 to 300 nM; in assay [2] (protocol of Example C-2), below 100 nM; in assay [3], below 100 nM; in assay [4] (protocol of Example D-2) it was 100 to 300 nM.
With `CNc1nc2c(Oc3ccc(NC(=O)c4cn(C(C)C)c(C)c(-c5ccc(F)cc5)c4=O)cc3F)ccnc2cc1OC` [Compound 582, N-[3-Fluoro-4-[[7-methoxy-6-(methylamino)-1,5-naphthyridin-4-yl]oxy]phenyl]-5-(4-fluorophenyl)-6-methyl-4-oxo-1-propan-2-ylpyridine-3-carboxamide], the IC50 in assay [1] (protocol of Example B-2), in assay [2] (protocol of Example C-2), in assay [3] and in assay [4] (protocol of Example D-2) was below 100 nM throughout.
On to `COc1cnc2c(Oc3ccc(NC(=O)c4cn(C)c(C)c(-c5ccc(F)cc5)c4=O)cc3F)ccnc2c1` [Compound 156, N-[3-Fluoro-4-[(7-methoxy-1,5-naphthyridin-4-yl)oxy]phenyl]-5-(4-fluorophenyl)-1,6-dimethyl-4-oxopyridine-3-carboxamide], for which the IC50 in assay [1] (setting [5]) is above 300 nM; in assay [2] (setting [6]), below 100 nM; in assay [3] it was below 100 nM; in assay [4] (setting [7]) it was below 100 nM.
In the case of `COc1cc2nccc(Oc3ccc(NC(=O)c4cn(OC)cc(-c5ccc(F)cc5)c4=O)cc3)c2nc1OC` [Compound 127, N-[4-[(6,7-Dimethoxy-1,5-naphthyridin-4-yl)oxy]phenyl]-5-(4-fluorophenyl)-1-methoxy-4-oxopyridine-3-carboxamide], the IC50 in assay [1] (setting [5]), in assay [2] (setting [6]), in assay [3] and in assay [4] (setting [7]) was below 100 nM throughout.
With `COc1ccc2nccc(Oc3ccc(NC(=O)c4cnc(C)c(-c5ccc(F)cc5)c4O)cc3F)c2n1` [Compound 172, N-[3-Fluoro-4-[(6-methoxy-1,5-naphthyridin-4-yl)oxy]phenyl]-5-(4-fluorophenyl)-4-hydroxy-6-methylpyridine-3-carboxamide], the IC50 in assay [1] (setting [5]) is 100 to 300 nM; in assay [2] (setting [6]) it was below 100 nM; in assay [3], below 100 nM; in assay [4] (setting [7]), below 100 nM.
On to `Cc1nc2c(Oc3ccc(NC(=O)c4cn(C(C)C)c(C)c(-c5ccc(F)cc5)c4=O)cc3F)ccnc2cc1Br` [Compound 153, N-[4-[(7-Bromo-6-methyl-1,5-naphthyridin-4-yl)oxy]-3-fluorophenyl]-5-(4-fluorophenyl)-6-methyl-4-oxo-1-propan-2-ylpyridine-3-carboxamide], for which the IC50 in assay [1] (setting [5]) was above 300 nM; in assay [2] (setting [6]), below 100 nM; in assay [3], below 100 nM; in assay [4] (setting [7]), below 100 nM.
Consider `CCc1nc2c(Oc3ccc(NC(=O)c4cnc(C)c(-c5ccc(F)cc5)c4O)cc3F)ccnc2cc1OC` [Compound 589, N-[4-[(6-Ethyl-7-methoxy-1,5-naphthyridin-4-yl)oxy]-3-fluorophenyl]-5-(4-fluorophenyl)-4-hydroxy-6-methylpyridine-3-carboxamide], for which the IC50 in assay [1] (protocol of Example B-2), in assay [2] (protocol of Example C-2), in assay [3] and in assay [4] (protocol of Example D-2) was below 100 nM in each case.
Turning to `COc1cc2nccc(Oc3ccc(NC(=O)c4cn(C(C)C)c(C)c(-c5ccc(F)cc5)c4=O)cc3F)c2nc1Br` [Compound 143, N-[4-[(6-Bromo-7-methoxy-1,5-naphthyridin-4-yl)oxy]-3-fluorophenyl]-5-(4-fluorophenyl)-6-methyl-4-oxo-1-propan-2-ylpyridine-3-carboxamide], the IC50 was above 300 nM in assay [1] (setting [5]), below 100 nM in assay [2] (setting [6]), below 100 nM in assay [3] and below 100 nM in assay [4] (setting [7]).
`CCn1cc(C(=O)Nc2ccc(Oc3ccnc4cc(OC)cnc34)cc2)c(=O)c(-c2ccc(F)cc2)c1C` [Compound 163, 1-Ethyl-5-(4-fluorophenyl)-N-[4-[(7-methoxy-1,5-naphthyridin-4-yl)oxy]phenyl]-6-methyl-4-oxopyridine-3-carboxamide]: the IC50 was above 300 nM in assay [1] (setting [5]), below 100 nM in assay [2] (setting [6]), below 100 nM in assay [3] and below 100 nM in assay [4] (setting [7]).
As to `COc1cc2nccc(Oc3ccc(NC(=O)c4cnc(C)c(-c5ccc(F)cc5)c4O)cc3)c2cc1OC` [Compound 171, N-[4-(6,7-Dimethoxyquinolin-4-yl)oxyphenyl]-5-(4-fluorophenyl)-4-hydroxy-6-methylpyridine-3-carboxamide], the half-maximal inhibitory concentration (IC50) in assay [1] (setting [5]), in assay [2] (setting [6]), in assay [3] and in assay [4] (setting [7]) was below 100 nM each time.
Regarding `COc1cc2nccc(Oc3ccc(NC(=O)c4cn(C(C)C)cc(-c5ccc(F)cc5)c4=O)cc3)c2nc1OC` [Compound 122, N-[4-[(6,7-Dimethoxy-1,5-naphthyridin-4-yl)oxy]phenyl]-5-(4-fluorophenyl)-4-oxo-1-propan-2-ylpyridine-3-carboxamide], the IC50 in assay [1] (setting [5]), in assay [2] (setting [6]), in assay [3] and in assay [4] (setting [7]) was below 100 nM each time.
Take `COc1cc2c(Oc3ccc(NC(=O)c4cnc(C)c(-c5ccc(F)cc5)c4O)cc3F)ccnc2cn1` [Compound 639, N-[3-fluoro-4-[(6-methoxy-1,7-naphthyridin-4-yl)oxy]phenyl]-5-(4-fluorophenyl)-4-hydroxy-6-methylpyridine-3-carboxamide]: the IC50 in assay [1] (protocol of Example B-2) was above 300 nM; in assay [2] (protocol of Example C-2), below 100 nM; in assay [3] it was below 100 nM; in assay [4] (protocol of Example D-2), below 100 nM.
For `COc1cc2nccc(Oc3ccc(NC(=O)c4cnc(C)c(-c5ccc(F)cc5C)c4O)cc3)c2nc1OC` [Compound 174, N-[4-[(6,7-Dimethoxy-1,5-naphthyridin-4-yl)oxy]phenyl]-5-(4-fluoro-2-methylphenyl)-4-hydroxy-6-methylpyridine-3-carboxamide], the IC50 in assay [1] (setting [5]), in assay [2] (setting [6]), in assay [3] and in assay [4] (setting [7]) was below 100 nM each time.
Turning to `Cc1nc2c(Oc3ccc(NC(=O)c4cn(C(C)C)c(C)c(-c5ccc(F)cc5)c4=O)cc3F)ccnc2cc1-c1cnn(C(F)F)c1` [Compound 614, N-[4-[[7-[1-(Difluoromethyl)pyrazol-4-yl]-6-methyl-1,5-naphthyridin-4-yl]oxy]-3-fluorophenyl]-5-(4-fluorophenyl)-6-methyl-4-oxo-1-propan-2-ylpyridine-3-carboxamide hydrochloride], the IC50 in assay [1] (protocol of Example B-2) is above 300 nM; in assay [2] (protocol of Example C-2), below 100 nM; in assay [3], below 100 nM; in assay [4] (protocol of Example D-2), below 100 nM.
